Results taken from patent publication US20040105907A1, “Anti-inflammatory effects of the partially purified extract of radix stephaniae tetrandrae” (priority 2002, published 2004).

Experiments:
Assay type in all cases: cell-based
neutrophils = assay: Cell viability / cytotoxicity by propidium iodide exclusion assay; conditions: 10 μg/ml, drug alone, 1 h incubation
Experimental: FIG. 17. Effects of Fan, Tet or SPRST on cell viability. Cell viability was measured by a propidium iodide exclusion assay. After incubation of cells (2×10^6/ml) with SPRST or test drugs for 1 h, cell suspension was further incubated with propidium iodide (10 μg/ml) and fluorescein diacetate (100 ng/ml) at room temperature for 10 min. Cell suspension was analyzed immediately on a flow cytometer (FACSCalibur™; Becton Dickinson) by recording forward and light scatter, red (>630 nm) and green (520 nm) fluorescence. […] Cell viability (%) was calculated by the CellQuest® software (Becton Dickinson) on a Power Macintosh 7300/200 computer. […]
Estimation of cell viability. Cell viability was determined according to Ormerod's method (Ormerod, M. G., 2000. Further applications to cell biology. In: Ormerod, M. G (Ed.), Flow cytometry, Third edition. Oxford University Press, UK, pp. 249-250) after incubation of, cells (2×10^6/ml) with test drugs for 1 h in 5-ml polystyrene round-bottomed tube (FALCON, Becton Dicson). […] After incubation with test drugs, cells suspension were further incubated with propidium iodide and fluorescein diacetate at room temperature for 10 min and analyzed immediately on a flow cytometer (FACSCalibur™; Becton Dickinson) by recording forward and light scatter, red (>630 nm) and green (520 nm) fluorescence. […]

human neutrophils [1] = assay: fMLP- or LTB4-induced intracellular calcium concentration ([Ca2+]i), fura-2; conditions: 500 ng/ml pretreatment, 2 hrs
Experimental: Neutrophils (2×10^6/ml) were preloaded with fura 2-AM (5 μM) at 37° C. for 45 min and washed twice with HBSS (calcium free). […] For G-protein study, sample was pretreated with 500 ng/ml of pertussis toxin (PTX) at 37° C. for 2 hrs. Samples were gentle mixed with a micromagnetic stirrer at 37° C. for 5 min before addition of 1 μM of fMLP. [Ca^2+]i was measured on a spectrofluorometer as described in Materials and Methods. Net increase in [Ca^2+]i was calculated by subtracting control values from respective experimental values (control [Ca^2+]i in resting cell was 108±16 nM).
Neutrophils (2×10^6/ml) were preloaded with fura 2-AM (5 μM) at 37° C. for 45 min and washed twice with HBSS (calcium free). […] For G-protein study, sample was pretreated with 500 ng/ml of pertussis toxin (PTX) at 37° C. for 2 hrs. […] [Ca^2+]i was measured on a spectrofluorometer as described in Materials and Methods. Net increase in [Ca^2+]i was calculated by subtracting control values from respective experimental values (control [Ca^2+]i in resting cell was 108±16 nM). […]
Where: K=224 nM (Fura-2 at 37° C.), Rmin=ratio value in minimal Ca^2+ conditions, Rmax=ratio value at a maximal Ca^2+ concentration, Sf380=380 nm reading in minimal Ca^2+ conditions (corrected for background), Sb380 =380 nm reading in maximal Ca^2+ conditions (corrected for background). […]

human neutrophils [2] = assay: AlF4−-induced (direct G protein activation) [Ca2+]i increment; conditions: 500 ng/ml pretreatment, 2 hrs
Experimental: Effects of SPRST, Tet, or Fan on AlF4^−-induced changes in intracellular calcium concentration ([Ca^2+]i). Fura 2-AM or BCECF-AM labeled-neutrophils were pretreated with 5-10 μg/ml of SPRST or other chemicals at 37° C. for 10 min. For G-protein study, sample was pretreated with 500 ng/ml of pertussis toxin (PTX) at 37° C. for 2 hrs before the addition of AlF4^− (10 mM NaF plus 10 μM AlCl3), a direct G-protein activator. AlF4^−-induced changes in [Ca^2+]i were measured as described in Materials and Methods. […] Values are mean±S.E.M. (n=5). *P<0.05, as compared to samples receiving AlF4^− alone for [Ca^2+]i and neutrophil adhesion, respectively. […]
Where: K=224 nM (Fura-2 at 37° C.), Rmin=ratio value in minimal Ca^2+ conditions, Rmax=ratio value at a maximal Ca^2+ concentration, Sf380=380 nm reading in minimal Ca^2+ conditions (corrected for background), Sb380 =380 nm reading in maximal Ca^2+ conditions (corrected for background). Rmax and Sb380 were obtained at the end of a measurement by permeabilizing the cells with 0.2% digitonin, where Rmin and Sf380 were determined by adding 20 mM EGTA after digitonin lysis.

human neutrophils [3] = assay: AlF4−-induced neutrophil firm adhesion; conditions: 500 ng/ml pretreatment, 2 hrs
Experimental: Effects of SPRST, Tet, or Fan on AlF4^−-induced changes in neutrophil adhesion. Fura 2-AM or BCECF-AM labeled-neutrophils were pretreated with 5-10 μg/ml of SPRST or other chemicals at 37° C. for 10 min. For G-protein study, sample was pretreated with 500 ng/ml of pertussis toxin (PTX) at 37° C. for 2 hrs before the addition of AlF4^− (10 mM NaF plus 10 μM AlCl3), a direct G-protein activator. AlF4^−-induced neutrophil adhesion were measured as described in Materials and Methods.
Measurement of Neutrophil Firm Adhesion. Adhesion of neutrophils to extracellular matrix was determined in 24-well tissue culture plates (FALCON®, NJ, USA) coated with fibrinogen as our previous study (Shen et al., 1999). Prior to the addition of neutrophils, the plates were incubated with 250 μl per well of human fibrinogen (50 pg/ml in PBS; Chemicon International, Inc., CA) for 2 hrs at 37° C. The wells were washed once with HBSS, blocked with 1% BSA (Sigma, USA) in HBSS for 1 hr at 37° C., and washed twice with HBSS containing 0.1% Tween-20 (Sigma, USA) and once with HBSS. […] Adherent neutrophils were then determined by measuring the fluorescence with a fluorescent plate reader (Cytofluor 2300, Millipore®) with excitation at 485 nm and emission at 530 nm. Data are expressed as fluorescence intensity.

Compound	cytotoxic effect (dead cells) (neutrophils)	inhibition of fMLP- or LTB4-triggered rapid increase in [Ca2+]i (human neutrophils [1])	AlF4−-induced [Ca2+]i increment (human neutrophils [2])	AlF4−-induced neutrophil firm adhesion (human neutrophils [3])
COc1ccc2cc1Oc1ccc(cc1)C[C@H]1c3cc(c(OC)cc3CCN1C)Oc1c(O)c(OC)cc3c1[C@H](C2)N(C)CC3 [Fan, fangchinoline]	0.84±0.11%			
COc1ccc2cc1Oc1ccc(cc1)C[C@H]1c3cc(c(OC)cc3CCN1C)Oc1c(OC)c(OC)cc3c1[C@H](C2)N(C)CC3 [Tet, tetrandrine]	1.24±0.17%			
pertussis toxin [PTX]		abolished	significantly inhibited	significantly inhibited
